The target of test [1] is T1, His6-TEV-PPARγ-(234-505) (Homo sapiens, UniProt P37231).
T1 construct: The His6-TEV-PPARγ-(234-505) protein for assay was expressed and purified; TEV cleavage site (N); made in house
T1 sequence (P37231 234-505): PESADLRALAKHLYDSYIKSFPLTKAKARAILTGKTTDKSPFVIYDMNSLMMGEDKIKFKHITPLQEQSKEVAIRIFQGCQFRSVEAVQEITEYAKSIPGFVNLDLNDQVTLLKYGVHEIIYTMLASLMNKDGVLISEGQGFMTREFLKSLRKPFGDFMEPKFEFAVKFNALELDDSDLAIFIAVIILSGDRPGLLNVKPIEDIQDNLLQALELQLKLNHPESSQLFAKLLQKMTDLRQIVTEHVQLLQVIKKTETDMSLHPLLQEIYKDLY
The test can be described thus: TR-FRET Assay to Measure Co-R Peptide Recruitment to PPARγ. To be noted: Co-R peptide (SMRT-ID2) recruitment; top final concentration 20 μM; read-out: TR-FRET i-Ag; AC50. The format is biochemical. The method, boiled down: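 Corepressor recruitment is measured by adding terbium-labeled anti-His antibody and FITC SMRT-ID2 peptide, at 5 and 200 nM final, after a 20-minute room-temperature protein–compound incubation. After one further hour, signal is converted to percent response between DMSO and 500 nM T0070907 wells.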
(In TR-FRET formats the signal depends on donor and acceptor labels being close together.)

In test [2] the test system is UM-UC-9 engineered cells. The test can be described thus: Cell proliferation / short-term viability assay, CellTiter-Glo 144 h. The format is cell-based, human. To be noted: read-out: CTGlo 144 h UMUC9.5, G150. The method, boiled down:
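Viability read by CellTiter-Glo 2.0 luminescence at day 7 versus DMSO-vehicle wells and a T0 plate measured on day 0. Cells: UM-UC-9 engineered assay-ready stocks, 500 cells/well in high-glucose DMEM with 10% FBS, 37° C, 5% CO2.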
(In general: ATP-based viability assays read luminescence as a measure of living cells.)

Where two headings read alike, the source gives them in different places.

On to `COc1cc(-c2cc(C(=O)N3CCC(O)(C(=O)NCc4cccc(Cl)c4)CC3)n[nH]2)c(Cl)cn1` [Example 171, 1-(5-(5-chloro-2-methoxypyridin-4-yl)-1H-pyrazole-3-carbonyl)-N-(3-chlorobenzyl)-4-hydroxypiperidine-4-carboxamide], for which the AC50 in test [1] came out at 210 nM. Also, the IC50 in test [2] (Homo sapiens, UM-UC-9, 144 h) came to 1550 nM.
For `COc1cc(-c2cc(C(=O)N3CC[C@H](C(=O)NC4CCC5CCCN5C4)CC34CC4)n[nH]2)c(F)cn1` (single isomer, unassigned) [Example 376-D], the AC50 in test [1] was found to be 129 nM. The IC50 in test [2] worked out at 71.4 nM.
As for `CO[C@]1(C(F)(F)F)CC[C@H](NC(=O)[C@H]2CCN(C(=O)c3cc(-c4cc(C)ncc4F)[nH]n3)C3(CC3)C2)CC1` (single isomer, unassigned) [Example 293-D], the AC50 in test [1] turned out to be 17 nM. In addition, the IC50 in test [2] (Homo sapiens, UM-UC-9, 144 h) is 86 nM.
Take `COc1cc(-c2cc(C(=O)N3CC[C@H](C(=O)NCC45CC(C(F)(F)F)(C4)C5)CC34CC4)[nH]n2)c(F)cn1` [Example 515, (S)-4-(3-(5-fluoro-2-methoxypyridin-4-yl)-1H-pyrazole-5-carbonyl)-N-((3-(trifluoromethyl)bicyclo[1.1.1]pentan-1-yl)methyl)-4-azaspiro[2.5]octane-7-carboxamide]: the AC50 in test [1] is 5 nM. Besides, the IC50 in test [2] (Homo sapiens, UM-UC-9, 144 h) turned out to be 6 nM.
With `COc1cc(-c2cc(C(=O)N3CC[C@H](C(=O)Nc4cnn5ccc(C(C)O)nc45)CC34CC4)n[nH]2)c(F)cn1` (single isomer, unassigned) [Example 445-B], the AC50 in test [1] came out at 11 nM. The IC50 in test [2] worked out at 116 nM.
For `COc1cc(-c2cc(C(=O)N3CC[C@H](C(=O)NC4CCN(CC(C)(C)O)C4)CC34CC4)[nH]n2)c(F)cn1` (stereo partly drawn) [Example 345-A, (S)-4-(3-(5-Fluoro-2-methoxypyridin-4-yl)-1H-pyrazole-5-carbonyl)-N-(1-(2-hydroxy-2-methylpropyl)pyrrolidin-3-yl)-4-azaspiro[2,5]octane-7-carboxamide], the AC50 in test [1] came out at 161 nM. Further, the IC50 in test [2] (Homo sapiens, UM-UC-9, 144 h) was found to be 445 nM.
In the case of `COc1cc(-c2cc(C(=O)N3CCC(C(=O)NCC45CCC(O)(C4)C5)CC34CC4)n[nH]2)c(F)cn1` (stereo not drawn) [Example 335, 4-(5-(5-fluoro-2-methoxypyridin-4-yl)-1H-pyrazole-3-carbonyl)-N-((4-hydroxybicyclo[2.1.1]hexan-1-yl)methyl)-4-azaspiro[2.5]octane-7-carboxamide], the AC50 in test [1] was 417 nM. Besides, in test [2] (Homo sapiens, UM-UC-9, 144 h), the IC50 turned out to be 6150 nM.
On to `COc1cc(-c2cc(C(=O)N3CC[C@H](C(=O)NCc4ncccc4Cl)CC34CC4)n[nH]2)c(F)cn1` [Example 358, (S)—N-((3-chloropyridin-2-yl)methyl)-4-(5-(5-fluoro-2-methoxypyridin-4-yl)-1H-pyrazole-3-carbonyl)-4-azaspiro[2.5]octane-7-carboxamide], for which the AC50 in test [1] is 5.1 nM. In test [2] (Homo sapiens, UM-UC-9, 144 h), the IC50 is 3.4 nM.
For the molecule “(S)—N—((S)-3,4-dihydro-2H-pyrano[3,2-b]pyridin-4-yl)-4-(5-(5-fluoro-2-methoxypyridin-4-yl)-1H-pyrazole-3-carbonyl)-4-azaspiro[2.5]octane-7-carboxamide and (S)—N—((R)-3,4-dihydro-2H-pyrano[3,2-b]pyridin-4-yl)-4-(5-(5-fluoro-2-methoxypyridin-4-yl)-1H-pyrazole-3-carbonyl)-4-azaspiro[2.5]octane-7-carboxamide [Example 366]”, the AC50 in test [1] is 28.8 nM. For the same molecule, the IC50 in test [2] is 41.4 nM.
As to `COc1cc(-c2cc(C(=O)N3CC[C@H](C(=O)NCc4ncc(F)cn4)CC34CC4)[nH]n2)c(F)cn1` [Example 512, (S)-4-(3-(5-fluoro-2-methoxypyridin-4-yl)-1H-pyrazole-5-carbonyl)-N-((5-fluoropyrimidin-2-yl)methyl)-4-azaspiro[2.5]octane-7-carboxamide], the AC50 in test [1] worked out at 11.2 nM. The IC50 in test [2] (Homo sapiens, UM-UC-9, 144 h) is 97.2 nM.
With “(1R,3s,5S)-8-(5-(5-fluoro-2-methoxypyridin-4-yl)-1H-pyrazole-3-carbonyl)-N—((R)-1-(3-(trifluoromethyl)-1,2,4-oxadiazol-5-yl)ethyl)-8-azabicyclo[3.2.1]octane-3-carboxamide and (1R,3s,5S)-8-(5-(5-fluoro-2-methoxypyridin-4-yl)-1H-pyrazole-3-carbonyl)-N—(S)-1-(3-(trifluoromethyl)-1,2,4-oxadiazol-5-yl)ethyl)-8-azabicyclo[3.2.1]octane-3-carboxamide [Example 290]”, in test [1], the AC50 was determined as 400 nM. Further, the IC50 in test [2] was 833 nM.
On the same counts, the results for `COc1cc(-c2cc(C(=O)N3CCC(C(=O)NC4CCN(c5cnc(C)nc5)C4)CC34CC4)n[nH]2)c(F)cn1` (mixture of isomers) [Example 453, (S)-4-(5-(5-fluoro-2-methoxypyridin-4-yl)-1H-pyrazole-3-carbonyl)-N—((S)-1-(2-methylpyrimidin-5-yl)pyrrolidin-3-yl)-4-azaspiro[2.5]octane-7-carboxamide and (S)-4-(5-(5-fluoro-2-methoxypyridin-4-yl)-1H-pyrazole-3-carbonyl)-N—((R)-1-(2-methylpyrimidin-5-yl)pyrrolidin-3-yl)-4-azaspiro[2.5]octane-7-carboxamide] are 25.6 nM and 44.2 nM.
For `Cc1cc(-c2cc(C(=O)N3CCC(C(=O)NC4CCC(O)(C(F)(F)F)CC4)CC34CC4)n[nH]2)ncn1` (single isomer, unassigned) [Example 339-A], in that order: 476 nM and 3800 nM.
On to `COc1cc(-c2cc(C(=O)N3CC[C@H](C(=O)NC4CCN(c5cnc(C)nc5)C4)CC34CC4)n[nH]2)c(F)cn1` (single isomer, unassigned) [Example 453-A], for which the AC50 in test [1] was 6 nM. For the same molecule, the IC50 in test [2] was 14.7 nM.
As to `COc1cc(-c2cc(C(=O)N3CCC(C(=O)NCC(F)(F)c4ccccc4)CC3)n[nH]2)c(Cl)cn1` [Example 149, 1-(5-(5-chloro-2-methoxypyridin-4-yl)-1H-pyrazole-3-carbonyl)-N-(2,2-difluoro-2-phenylethyl)piperidine-4-carboxamide], the AC50 in test [1] came out at 49.3 nM. For the same molecule, in test [2] (Homo sapiens, UM-UC-9, 144 h), the IC50 stood at 418 nM.
In the case of `COc1cc(-c2cc(C(=O)N3CCC(C(=O)NC4CCCC(F)(F)C4)CC3)n[nH]2)c(Cl)cn1` (stereo not drawn) [Example 143, 1-(5-(5-chloro-2-methoxypyridin-4-yl)-1H-pyrazole-3-carbonyl)-N-(3,3-difluorocyclohexyl)piperidine-4-carboxamide], the AC50 in test [1] was determined as 910 nM. In addition, in test [2] (Homo sapiens, UM-UC-9, 144 h), the IC50 stood at 3310 nM.
For `COc1cc(-c2cc(C(=O)N3CCC(C(=O)N[C@H]4CC[C@@](O)(C(F)(F)F)CC4)C[C@@H]3C(F)(F)F)n[nH]2)c(F)cn1` (mixture of isomers) [Example 368, (2R,4R)-1-(5-(5-fluoro-2-methoxypyridin-4-yl)-1H-pyrazole-3-carbonyl)-N-((1r,4R)-4-hydroxy-4-(trifluoromethyl)cyclohexyl)-2-(trifluoromethyl)piperidine-4-carboxamide and (2R,4S)-1-(5-(5-fluoro-2-methoxypyridin-4-yl)-1H-pyrazole-3-carbonyl)-N-((1r,4S)-4-hydroxy-4-(trifluoromethyl)cyclohexyl)-2-(trifluoromethyl)piperidine-4-carboxamide], in that order: 244 nM and 497 nM.
For the molecule `COc1cc(-c2cc(C(=O)N3CCC(C(=O)NCC4(O)CCCCC4)CC3)n[nH]2)c(Cl)cn1` [Example 134, 1-(5-(5-chloro-2-methoxypyridin-4-yl)-1H-pyrazole-3-carbonyl)-N-((1-hydroxycyclohexyl)methyl)piperidine-4-carboxamide], the AC50 in test [1] was 238 nM. For the same molecule, the IC50 in test [2] (Homo sapiens, UM-UC-9, 144 h) is 1090 nM.
Turning to `COc1cc(-c2cc(C(=O)N3CC[C@H](C(=O)NCc4nccnc4Cl)CC34CC4)n[nH]2)c(F)cn1` [Example 388, (S)—N-((3-chloropyrazin-2-yl)methyl)-4-(5-(5-fluoro-2-methoxypyridin-4-yl)-1H-pyrazole-3-carbonyl)-4-azaspiro[2.5]octane-7-carboxamide], in test [1], the AC50 came out at 11.4 nM. For the same molecule, the IC50 in test [2] (Homo sapiens, UM-UC-9, 144 h) was found to be 17.6 nM.
On to `COc1cc(-c2cc(C(=O)N3CC[C@H](C(=O)NCc4ncc(N5CC6CC5CN6)cn4)CC34CC4)n[nH]2)c(F)cn1` (single isomer, unassigned) [Example 467-B], for which the AC50 in test [1] turned out to be 644 nM. Moreover, the IC50 in test [2] was above 10000 nM.
On to `COc1cc(-c2cc(C(=O)N3CC[C@H](C(=O)Nc4cnn5c4OC(C)(C)CC5)CC34CC4)n[nH]2)c(F)cn1` [Example 498, (S)—N-(5,5-dimethyl-6,7-dihydro-5H-pyrazolo[5,1-b][1,3]oxazin-3-yl)-4-(5-(5-fluoro-2-methoxypyridin-4-yl)-1H-pyrazole-3-carbonyl)-4-azaspiro[2.5]octane-7-carboxamide], for which the AC50 in test [1] was 2.9 nM. The IC50 in test [2] (Homo sapiens, UM-UC-9, 144 h) stood at 21.9 nM.
